In patent publication US20240366649A1, “4-ETHYNYL-3-HYDROXY-TETRAHYDROFURANYL-ADENINE PHOSPHORAMIDATES AND RELATED COMPOUNDS AND THEIR USE IN TREATING MEDICAL CONDITIONS” (ROME THERAPEUTICS, INC., priority 2021, published 2024):

Columns and labels:
[1] = system: Esophageal cancer TE-1 cells; experiment: Cancer cell viability assay with 3D cell colonies (CellTiter-Glo), TE-1; format: cell-based; details: Homo sapiens, 168 h; TE-1, 3D methylcellulose colonies, 7 days
Description: Cancer cell lines were cultured in the following media: • Ovarian cancer OVCAR-8 cells—RPMI media containing 10% FBS • Ovarian cancer SK-OV-3 cells—McCoy's 5a media containing 10% FBS • Ovarian cancer SW756 cells—L-15 (100% air)+10% FBS • Esophageal cancer TE-1 cells—RPMI-1640+10% FBS • Esophageal cancer KYSE-410 cells—RPMI-1640+5˜10% FBS • Esophageal cancer KYSE-70 cells—RPMI-1640+10% h.i.FBS. • Pharyngeal cancer FaDu cells—MEM+0.01 mM NEAA+10% FBS
Cell colony formation was tested using a 3D methylcellulose-based CellTiter-Glo (CTG) viability assay (Cat. No: G7573, Promega). Briefly, cells were inoculated into 96-well plates (at 1,500 cells per well) into a solution of 0.65% methylcellulose in growth media and incubated overnight at 37° C. in 5% CO2. The next day, serially diluted test compound (islatravir, 4′-ethynyl-2-fluoro-2′-deoxyadenosine) or positive control (cisplatin, Cat. No. 6J015A89, Qilu Pharma) were added at the indicated concentrations, and the cells were incubated for 7 days. On day seven, 100 μL of CTG reagent was added, and the plates were incubated at room temperature for 20 min. Luminescence was read on an Envision Multi Label Reader according to manufacturer's instructions. IC50 values were determined using the following calculation: […]

[2] = system: interferon-stimulated gene (ISG) expression; experiment: In vivo decitabine challenge model; set-up: species or system C57BL/6 mice; details: mice; decitabine i.p. 5 mg/kg and islatravir p.o. 0.6-6.0 mg/kg once a day Day 0 to Day 4; IFIT2 v. GAPDH
Description: Twenty 9-11 week old C57BL/6 mice were acclimated to the lab for at least 5 days. Islatravir (4′-ethynyl-2-fluoro-2′-deoxyadenosine) was prepared in a 0.5% methylcellulose solution for p.o. administration. Decitabine (Sigma) was dissolved in sterile PBS (pH 7.4) and dosed within 30 minutes of preparation of the solution. Doses of both islatravir and decitabine were administered once a day, every day from Day 0 to Day 4.
On Day 0, mice were split into four groups of five mice and given their first dose of decitabine (i.p., 5 mg/kg) and […]. Dosing groups were:
Decitabine and islatravir were administered daily from Day 0 to Day 4. All mice were euthanized 1 hour after the last dose administration on Day 4. Spleens, liver, and terminal colon were collected, along with plasma from each animal. The fold changes in interferon-stimulated gene (ISG) expression was calculated by first normalizing to GAPDH gene using the Delta CT method. The CT (gene of interest)−CT (reference gene) was calculated to generate a delta CT for all samples. The fold change was then calculated by taking the […](Delta CT(control)−Delta CT (experimental). The control in this example was the PBS control animal group. The Taqman duplex assay (Thermo Fisher 4331182 and 4448489) was used according to the manufacturer's instructions to determine levels of GAPDH v. IFIT2.

[3] = system: IFN-β production in PBMCs; experiment: Decitabine-stimulated human PBMC assay; format: cell-based; details: anti-CD3/anti-CD28, 10 μM decitabine, 5 days
Description: EasySep buffer (32 mL, Stem Cell, cat. #20144) was used to dilute 8 mL of LRSC buffy coat (from fresh Leukopak) with gentle mixing. The diluted buffy coat (20 mL) was transferred into each of two SepMate 50 tubes, and the tubes were filled with 15 mL of Lyphoprep (Stem Cell, ct. #07851) density gradient. The SepMate tubes were then centrifuged at 1200G for 10 minutes at room temperature with the brake on. The top layer of supernatant was collected in SepMate tubes by quickly pouring it into a new 50 mL conical tube. The PBMCs were washed with EasySep buffer ×2 by centrifuging at 300G for 5 minutes. The cells were resuspended in 30 mL of EasySep and centrifuged at 100G for 5 minutes with the brake off, and the platelets were removed. The cells were then resuspended in 6 mL of 1×RBC lysis buffer (InvitroGen) and incubated at 37° C. for 5 minutes. Then, 25 mL of EasySep buffer was mixed into the tube and it was centrifuged at 300G for 5 minutes. The cells were resuspended in 10 mL of EasySep buffer and the cells were then counted with Cellometer (AO/PI). The PBMCs were resuspended in RPMI1640 (ThermoFisher)+10% FBS (HyClone)+p/s at 3×10^6/mL. The PBMCs (100 μL, 300 k PBMCs) were then seeded in a 96-well flat bottom microplate (Corning) that had been precoated with 100 μL of anti-CD3 antibody (10 μg/mL in PBS, Biolegend) or PBS at 4° C., one day before the assay was commenced. […]

## C#C[C@]1(CO)O[C@@H](n2cnc3c(N)nc(F)nc32)C[C@@H]1O [islatravir, 4′-ethynyl-2-fluoro-2′-deoxyadenosine]
[1]
  IC50: ≤ 10 µM
[2]
  interferon-stimulated gene (ISG) response: showed the change in ISG response
[3]
  production of IFN-β: activated production of IFN-β
